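Five concentrations, 48 hours, 96-well plates. The concentration for 50% growth inhibition is given as GI50.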 Active and inactive are the calls of the source. Rule as the data show it: active = GI50 up to about 1.1 µM and inactive = higher.
Columns and labels:
Assay in all cases: NCI anticancer screen, dose series, 48 h
NCI-H226 = test system: NCI-H226
HOP-18 = test system: HOP-18
HCC 2998 = test system: HCC 2998
M14 = test system: M14
CAKI-1 = test system: CAKI-1
SK-MEL-2 = test system: SK-MEL-2
CCRF-CEM = test system: CCRF-CEM
SF-295 = test system: SF-295
KM-20L2 = test system: KM-20L2
OVCAR-3 = test system: OVCAR-3
SN12C = test system: SN12C
DLD-1 = test system: DLD-1
SK-OV-3 = test system: SK-OV-3
A498 = test system: A498
786-0 = test system: 786-0
HOP-62 = test system: HOP-62
SW-620 = test system: SW-620
SNB-75 = test system: SNB-75
SR = test system: SR
COLO 205 = test system: COLO 205
K562 = test system: K562
DMS-273 = test system: DMS-273
Malme-3M = test system: Malme-3M
HOP-92 = test system: HOP-92
RXF 393 = test system: RXF 393
MOLT-4 = test system: MOLT-4
NCI-H522 = test system: NCI-H522
NCI-H460 = test system: NCI-H460
U-251 = test system: U-251
UACC-62 = test system: UACC-62
IGROV-1 = test system: IGROV-1
UACC-257 = test system: UACC-257
SF-539 = test system: SF-539
SK-MEL-5 = test system: SK-MEL-5
NCI-H23 = test system: NCI-H23
M19-MEL = test system: M19-MEL
RPMI-8226 = test system: RPMI-8226
SF-268 = test system: SF-268
SK-MEL-28 = test system: SK-MEL-28
LOX IMVI = test system: LOX IMVI
A549 = test system: A549
HL-60 = test system: HL-60
OVCAR-5 = test system: OVCAR-5
HT-29 = test system: HT-29
ACHN = test system: ACHN
OVCAR-4 = test system: OVCAR-4
DMS-114 = test system: DMS-114
UO-31 = test system: UO-31
SNB-19 = test system: SNB-19
LXFL 529 = test system: LXFL 529
OVCAR-8 = test system: OVCAR-8
EKVX = test system: EKVX
HCT-116 = test system: HCT-116
TK-10 = test system: TK-10
HCT-15 = test system: HCT-15
XF498 = test system: XF498
SNB-78 = test system: SNB-78
KM12 = test system: KM12

SMILES: C=C(Nc1ccc(OC)cc1OC)C(=O)Cc1cccc[n+]1[O-]
- GI50 (NCI-H226): > 100 µM (inactive)
- GI50 (HOP-18): > 100 µM (inactive)
- GI50 (HCC 2998): > 100 µM (inactive)
- GI50 (M14): > 100 µM (inactive)
- GI50 (CAKI-1): > 100 µM (inactive)
- GI50 (SK-MEL-2): > 100 µM (inactive)
- GI50 (CCRF-CEM): > 100 µM (inactive)
- GI50 (SF-295): > 100 µM (inactive)
- GI50 (KM-20L2): > 100 µM (inactive)
- GI50 (OVCAR-3): > 100 µM (inactive)
- GI50 (SN12C): > 100 µM (inactive)
- GI50 (DLD-1): > 100 µM (inactive)
- GI50 (SK-OV-3): > 100 µM (inactive)
- GI50 (A498): > 100 µM (inactive)
- GI50 (786-0): > 100 µM (inactive)
- GI50 (HOP-62): > 100 µM (inactive)
- GI50 (SW-620): > 100 µM (inactive)
- GI50 (SNB-75): > 100 µM (inactive)
- GI50 (SR): > 100 µM (inactive)
- GI50 (COLO 205): > 100 µM (inactive)
- GI50 (K562): > 100 µM (inactive)
- GI50 (DMS-273): > 100 µM (inactive)
- GI50 (Malme-3M): > 100 µM (inactive)
- GI50 (HOP-92): > 100 µM (inactive)
- GI50 (RXF 393): > 100 µM (inactive)
- GI50 (MOLT-4): > 100 µM (inactive)
- GI50 (NCI-H522): > 100 µM (inactive)
- GI50 (NCI-H460): > 100 µM (inactive)
- GI50 (U-251): > 100 µM (inactive)
- GI50 (UACC-62): > 100 µM (inactive)
- GI50 (IGROV-1): > 100 µM (inactive)
- GI50 (UACC-257): > 100 µM (inactive)
- GI50 (SF-539): > 100 µM (inactive)
- GI50 (SK-MEL-5): > 100 µM (inactive)
- GI50 (NCI-H23): > 100 µM (inactive)
- GI50 (M19-MEL): > 100 µM (inactive)
- GI50 (RPMI-8226): > 100 µM (inactive)
- GI50 (SF-268): > 100 µM (inactive)
- GI50 (SK-MEL-28): > 100 µM (inactive)
- GI50 (LOX IMVI): > 100 µM (inactive)
- GI50 (A549): > 100 µM (inactive)
- GI50 (HL-60): > 100 µM (inactive)
- GI50 (OVCAR-5): > 100 µM (inactive)
- GI50 (HT-29): > 100 µM (inactive)
- GI50 (ACHN): > 100 µM (inactive)
- GI50 (OVCAR-4): > 100 µM (inactive)
- GI50 (DMS-114): > 100 µM (inactive)
- GI50 (UO-31): > 100 µM (inactive)
- GI50 (SNB-19): > 100 µM (inactive)
- GI50 (LXFL 529): > 100 µM (inactive)
- GI50 (OVCAR-8): > 100 µM (inactive)
- GI50 (EKVX): > 100 µM (inactive)
- GI50 (HCT-116): > 100 µM (inactive)
- GI50 (TK-10): > 100 µM (inactive)
- GI50 (HCT-15): > 100 µM
- GI50 (XF498): > 100 µM (inactive)
- GI50 (SNB-78): > 100 µM (inactive)
- GI50 (KM12): > 100 µM (inactive)

SMILES: O=C(NCCOC(=O)CCCCCCCCC(=O)OCCNC(=O)NC(=O)c1cn(Cc2ccccc2)c(=O)[nH]c1=O)NC(=O)c1cn(Cc2ccccc2)c(=O)[nH]c1=O
- GI50 (NCI-H226): > 100 µM (inactive)
- GI50 (HCC 2998): > 100 µM (inactive)
- GI50 (M14): > 100 µM (inactive)
- GI50 (CAKI-1): > 100 µM (inactive)
- GI50 (SK-MEL-2): > 100 µM (inactive)
- GI50 (SF-295): > 100 µM (inactive)
- GI50 (KM-20L2): > 100 µM (inactive)
- GI50 (OVCAR-3): > 100 µM (inactive)
- GI50 (SN12C): > 100 µM (inactive)
- GI50 (DLD-1): > 100 µM (inactive)
- GI50 (SK-OV-3): > 100 µM (inactive)
- GI50 (A498): > 100 µM (inactive)
- GI50 (786-0): > 100 µM (inactive)
- GI50 (HOP-62): > 100 µM (inactive)
- GI50 (SW-620): > 100 µM (inactive)
- GI50 (SNB-75): > 100 µM (inactive)
- GI50 (SR): > 100 µM (inactive)
- GI50 (COLO 205): > 100 µM (inactive)
- GI50 (K562): > 100 µM (inactive)
- GI50 (DMS-273): > 100 µM (inactive)
- GI50 (MOLT-4): > 100 µM (inactive)
- GI50 (NCI-H522): > 100 µM (inactive)
- GI50 (NCI-H460): > 100 µM (inactive)
- GI50 (U-251): > 100 µM (inactive)
- GI50 (UACC-62): > 100 µM (inactive)
- GI50 (IGROV-1): > 100 µM (inactive)
- GI50 (UACC-257): > 100 µM (inactive)
- GI50 (SF-539): > 100 µM (inactive)
- GI50 (SK-MEL-5): > 100 µM (inactive)
- GI50 (NCI-H23): > 100 µM (inactive)
- GI50 (M19-MEL): > 100 µM (inactive)
- GI50 (RPMI-8226): > 100 µM (inactive)
- GI50 (SF-268): > 100 µM (inactive)
- GI50 (SK-MEL-28): > 100 µM (inactive)
- GI50 (LOX IMVI): > 100 µM (inactive)
- GI50 (A549): > 100 µM (inactive)
- GI50 (HL-60): > 100 µM (inactive)
- GI50 (OVCAR-5): > 100 µM (inactive)
- GI50 (HT-29): > 100 µM (inactive)
- GI50 (ACHN): > 100 µM (inactive)
- GI50 (OVCAR-4): > 100 µM (inactive)
- GI50 (DMS-114): > 100 µM (inactive)
- GI50 (UO-31): > 100 µM (inactive)
- GI50 (SNB-19): > 100 µM (inactive)
- GI50 (LXFL 529): > 100 µM (inactive)
- GI50 (OVCAR-8): > 100 µM (inactive)
- GI50 (EKVX): > 100 µM (inactive)
- GI50 (HCT-116): > 100 µM (inactive)
- GI50 (TK-10): > 100 µM (inactive)
- GI50 (HCT-15): > 100 µM
- GI50 (XF498): > 100 µM (inactive)
- GI50 (SNB-78): > 100 µM (inactive)
- GI50 (KM12): > 100 µM (inactive)

SMILES: CCOC(=O)c1c(-c2ccccc2)c(C(OC(c2ccccc2)c2c(-c3ccccc3)c(C(=O)OCC)n3ccccc23)c2ccccc2)c2ccccn12 (configuration not stated)
- GI50 (NCI-H226): > 100 µM (inactive)
- GI50 (HOP-18): > 100 µM (inactive)
- GI50 (HCC 2998): > 100 µM (inactive)
- GI50 (M14): > 100 µM (inactive)
- GI50 (CAKI-1): > 100 µM (inactive)
- GI50 (SK-MEL-2): > 100 µM (inactive)
- GI50 (CCRF-CEM): > 100 µM (inactive)
- GI50 (SF-295): > 100 µM (inactive)
- GI50 (KM-20L2): > 100 µM (inactive)
- GI50 (OVCAR-3): > 100 µM (inactive)
- GI50 (SN12C): > 100 µM (inactive)
- GI50 (DLD-1): > 100 µM (inactive)
- GI50 (SK-OV-3): > 100 µM (inactive)
- GI50 (786-0): > 100 µM (inactive)
- GI50 (HOP-62): > 100 µM (inactive)
- GI50 (SW-620): > 100 µM (inactive)
- GI50 (SNB-75): > 100 µM (inactive)
- GI50 (SR): > 100 µM (inactive)
- GI50 (COLO 205): > 100 µM (inactive)
- GI50 (K562): > 100 µM (inactive)
- GI50 (DMS-273): > 100 µM (inactive)
- GI50 (Malme-3M): > 100 µM (inactive)
- GI50 (RXF 393): > 100 µM (inactive)
- GI50 (MOLT-4): > 100 µM (inactive)
- GI50 (NCI-H522): > 100 µM (inactive)
- GI50 (NCI-H460): > 100 µM (inactive)
- GI50 (UACC-62): > 100 µM (inactive)
- GI50 (IGROV-1): > 100 µM (inactive)
- GI50 (UACC-257): > 100 µM (inactive)
- GI50 (NCI-H23): > 100 µM (inactive)
- GI50 (RPMI-8226): > 100 µM (inactive)
- GI50 (SF-268): > 100 µM (inactive)
- GI50 (SK-MEL-28): > 100 µM (inactive)
- GI50 (LOX IMVI): > 100 µM (inactive)
- GI50 (A549): > 100 µM (inactive)
- GI50 (HL-60): > 100 µM (inactive)
- GI50 (OVCAR-5): > 100 µM (inactive)
- GI50 (HT-29): > 100 µM (inactive)
- GI50 (ACHN): > 100 µM (inactive)
- GI50 (OVCAR-4): > 100 µM (inactive)
- GI50 (UO-31): > 100 µM (inactive)
- GI50 (SNB-19): > 100 µM (inactive)
- GI50 (LXFL 529): > 100 µM (inactive)
- GI50 (OVCAR-8): > 100 µM (inactive)
- GI50 (EKVX): > 100 µM (inactive)
- GI50 (HCT-116): > 100 µM (inactive)
- GI50 (TK-10): > 100 µM (inactive)
- GI50 (HCT-15): > 100 µM
- GI50 (XF498): > 100 µM (inactive)
- GI50 (SNB-78): > 100 µM (inactive)
- GI50 (KM12): > 100 µM (inactive)

Reference: ChEMBL document CHEMBL1201862, “PubChem BioAssay data set” (2004)
